Measurements reported in patent US20220053758A1, “Microcapsule With Acetamides And Diflufenican” (Monsanto Technology LLC, priority 2020, published 2022).

Assays:
[1] = 25° C.; cited from earlier work
proso millet (PANMI) = experiment: Greenhouse pre-emergent efficacy, Example 3B; assay type: in vivo, Panicum miliaceum; details: both rates tested (½× and 1×)
Excerpt: (§1) ACC, DFF and MRB were used as the commercial products Warrant®, Brodal® and TriCor® DF as described in Example 3A above. Further, also a DFF+MRB pre-mix (200 g/L DFF+400 g/L MRB, suspension concentrate) was used. For GR (glyphosate resistant) palmer amaranth (AMAPA), at 1× rate, all 2- and 3-way treatments provided >95% control. Except for the DFF+MRB pre-mix, these treatments also provided >95% control of GR AMAPA at ½× rate as well. No single active ingredient provided acceptable control of GR AMAPA in this trial.

[2] = test system: GR (glyphosate resistant) palmer amaranth (AMAPA); experiment: Greenhouse pre-emergent efficacy, Example 3B; assay type: in vivo, Amaranthus palmeri; details: rates tested (½× and 1×)
Excerpt: as §1

[3] = test system: glyphosate resistant Canola (Roundup Ready® Canola); experiment: Greenhouse post-emergent efficacy in glyphosate resistant Canola, Example 3C; assay type: in vivo; details: visual rating 14 DAT
Procedure: ACC and DFF were used as the commercial products Warrant® and Brodal® as described in Example 3A above. The seeds of glyphosate resistant Canola (Roundup Ready® Canola) were planted in 3.5-inches (8.89 cm) square plastic pots filled with a potting media of 75% silt loam and 25% Redi-earth (Sun Gro, Bellevue, Wash.). The temperature conditions were 22° C. day and 17° C. night with 14 hours of supplemental light (approximately 600 microeinsteins). The pots are placed in a controlled-environment greenhouse equipped with sub-irrigation. The treatments applications were applied to the plants with a track sprayer generally using a TTI110015 nozzle spray nozzle. The spray nozzle was 16 inches (40.64 cm) above the top of the plants and a spray volume rate of about 140 L/ha was applied. The plants were sprayed when canola was at the V3-V4 growth stage. Visual ratings (% control) were collected at 14 DAT.

[4] = test system: AMAPA (WR-2015-008), resistant against glyphosate and metribuzin (PSII-inhibitor), PPO-, HPPD- and ALS-inhibitor herbicides; experiment: Greenhouse pre-emergent efficacy on multiple resistant AMAPA, Example 3D; assay type: in vivo, Amaranthus palmeri; details: 21 DAT
Procedure: (§2) Premixes of present disclosure were compared with ACC and DFF used as the commercial products Warrant® and Brodal® as described in Example 3A above, as well as a corresponding tank-mix of ACC+DFF. Two different pre-mix formulations according to the present disclosure were evaluated for pre-emergent efficacy on the following difficult to control multiple resistant palmer amaranth (Amaranthus palmeri, AMAPA) species: AMAPA (WR-2015-002), resistant against glyphosate, PPO-, HPPD- and ALS-inhibitor herbicides; and AMAPA (WR-2015-008), resistant against glyphosate and metribuzin (PSII-inhibitor), PPO-, HPPD- and ALS-inhibitor herbicides.
(§3) At 21 DAT (days after treatment), visual percent control as well as fresh biomass ratings were recorded for all replications. […] Percent control was then calculated based on the respective untreated control plants.

[5] = test system: AMAPA (WR-2015-002), resistant against glyphosate, PPO-, HPPD- and ALS-inhibitor herbicides; experiment: as above; assay type: in vivo, Amaranthus palmeri; details: 21 DAT
Procedure: as §2, §3

[6] = group line over the three rates (1×, ½×, ¼×)

SMILES: O=C(Nc1ccc(F)cc1F)c1cccnc1Oc1cccc(C(F)(F)F)c1 [DFF, N-(2,4-difluorophenyl)-2-[3-(trifluoromethyl)phenoxy]-3-pyridinecarboxamide]
- water solubility [1]: about 50 μg/L
- control of proso millet (PANMI), in words (proso millet (PANMI)): weak control
- control of GR AMAPA, in words [2]: weak control
- Canola Crop Injury Average [3, 6]: 18.3%
- Canola Crop Injury Average ([3]; ¼× (ACC 315, DFF 38 g ai/ha)): 3.1%
- Canola Crop Injury Average ([3]; ½× (ACC 630, DFF 75 g ai/ha)): 13.8%
- Injury Average AMAPA (WR-2015-008) ([4]; 1× (ACC 1260, DFF 150 g ai/ha)): 75.6%
- Injury Average AMAPA (WR-2015-008) ([4]; ½× (ACC 630, DFF 75 g ai/ha)): 65.6%
- Injury Average AMAPA (WR-2015-002) ([5]; 1× (ACC 1260, DFF 150 g ai/ha)): 70.6%
- Injury Average AMAPA (WR-2015-002) ([5]; ½× (ACC 630, DFF 75 g ai/ha)): 51.3%

SMILES: CCOCN(C(=O)CCl)c1c(C)cccc1CC [ACC, 2-chloro-N-(ethoxymethyl)-N-(2-ethyl-6-methylphenyl)acetamide]
- control of proso millet (PANMI), in words (proso millet (PANMI)): weak control
- control of GR AMAPA, in words [2]: weak control
- Canola Crop Injury Average [3, 6]: 6.7%
- Canola Crop Injury Average ([3]; ¼× (ACC 315, DFF 38 g ai/ha)): 0.0%
- Canola Crop Injury Average ([3]; ½× (ACC 630, DFF 75 g ai/ha)): 2.5%
- Injury Average AMAPA (WR-2015-008) ([4]; 1× (ACC 1260, DFF 150 g ai/ha)): 73.8%
- Injury Average AMAPA (WR-2015-008) ([4]; ½× (ACC 630, DFF 75 g ai/ha)): 60.6%
- Injury Average AMAPA (WR-2015-002) ([5]; 1× (ACC 1260, DFF 150 g ai/ha)): 81.6%
- Injury Average AMAPA (WR-2015-002) ([5]; ½× (ACC 630, DFF 75 g ai/ha)): 61.9%
